Marks after values point to notes of the source that are not given here. Ends that are not written are not given here.
Key:
[1] = Amylin or sibutramine by 28-day osmotic pump in high fat-fed rats (Example 1); format: in vivo, rat; conditions: for Body Weight / Caloric Intake: amylin 300 μg/kg/day or sibutramine 3 mg/kg/day, s.c. 28-day osmotic pump, high fat-fed rats, vs high fat-fed controls
Protocol: (§1) Low fat-fed rats (11% kcal from fat, D12329, Research Diets) were also implanted with pumps delivering vehicle. Food intake and body weight measurements were obtained weekly.
Rats were sacrificed by cardiac puncture under anesthesia. Triglyceride levels were measured on a COBAS Mira plasma analyzer (Roche), and leptin and insulin were assayed according to Linco Research rat RIA kits. Body composition was measured by chemical analysis (Covance Laboratories, Madison, Wis.).
All data are represented as mean±SEM. Analysis of variance was used to test for group differences.
The rats were fattened for 10 weeks prior to drug treatment. The high fat-fed rats were designated as obesity-prone (top 50% of weight gainers) or obesity-resistant (bottom 50%) based on the amount of weight gained through week 7.
In this study, an obesity-prone/obesity-resistant difference in drug interaction was found for protein weight in amylin-treated rats, and thus body composition parameters were measured separately in obesity-prone and obesity-resistant animals in each drug group (FIGS. 2A and 2B).

[2] = Three doses of amylin by osmotic pump in high fat-fed rats (Example 2); format: in vivo, rat; conditions: for Body Weight / Caloric Intake: high fat-fed rats, vs high fat-fed controls
Source text: as §1

[3] = Chronic amylin infusion vs pair-feeding in lean HSD rats (Example 3); format: in vivo, rat
Protocol: Lean, male Harlan SPRAGLE DAWLEY® (HSD) (Harlan 7012) rats were maintained on “standard chow” (˜5% calories from fat).
Food intake and body weight were recorded daily (FIGS. 5, 6A, 6B, 7, 8A, and 8B).
On the final day of the experiment, rats were deeply anaesthetized and sacrificed by cardiac puncture. Plasma triglycerides, glucose, and cholesterol were measured on a COBAS Mira plasma Analyzer (Roche). Plasma leptin and insulin were measured using Linco Research kits. (See, FIGS. 9A-9F and 10A-10E.) Body composition was measured by chemical analysis (Covance Laboratories, Madison, Wis.). Fat pad weights of the epididymal, retroperitoneal, subcutaneous, and perirenal fat pads (all unilateral; analysis only done in DIO animals) were carefully dissected and weighed (FIGS. 12A-12D). In analyzing the tissue biochemistry, […] were powdered under liquid N2 and extracted in chloroform:methanol. 0.6% NaCl solution was then added and the tubes were vortexed, centrifuged, and the organic phase was transferred to glass scintillation vials and dried under a stream of N2. Dried lipids were resuspended and triglycerides were quantified by enzymatic assay (Pointe Scientific, Inc.). Tissue glycogen was measured by the amyloglucosidase method. (See FIGS. 11A-11D.)
All data are represented as mean±SEM. Analysis of variance (ANOVA) and Bonferroni post-hoc tests were used to test for group differences (SYSTAT® for Windows). A P-value <0.05 was considered significant. Graphs were generated using PRISM® 4 for Windows (Graphpad Software).

[4] = Chronic amylin infusion vs pair-feeding in DIO Levin rats (Example 3); format: in vivo, rat; set-up: reduction in body weight relative to vehicle controls / Weight (g) / Ash (%): dose or concentration left out as unconfirmed
[5] = Amylin with prior or concurrent food restriction in retired female breeder rats (Example 4); format: in vivo, rat; conditions: for % Change in fat / % Change in protein / Estimated Mean Weight change from treatment: amylin 100 μg/kg/day, retired female breeder rats, high fat diet
Source text: Retired female breeder rats were maintained on a high fat diet (40% fat) for 8 weeks. Prior to drug treatment, rats were either ad-lib fed or food restricted to 95% of their starting body weight.
Changes in body weight and body composition are summarized in the table below and depicted in FIGS. 13A-13P.

[6] = Amylin versus pramlintide in DIO Levin rats (Example 5); format: in vivo, rat; conditions: 76 nmol/kg/day by osmotic mini-pump for 24 days
Protocol: 48 DIO Levin rats (an in-bred model of diet induced obesity) were used in this study. […] Food intake and body weight was measured daily. […] The pair-fed groups were only allowed to consume the daily intakes of their respective drug-treated groups. For body composition, rats were scanned in a rodent NMR before treatment and after sacrifice (at the end of the study), allowing for the ability to calculate changes in carcass fat and protein (e.g., lean tissue).

[7] = system: insulin-stimulated glycogen synthesis in soleus muscle; test: Soleus muscle assay; format: cell-based; conditions: rat soleus muscle, inhibition of glucose incorporation into glycogen
Protocol: Concentrations of peptide dissolved in carrier-free buffers are determined by quantitative amino acid analysis, as described therein. The ability of compounds to act as agonists in this assay is determined by measuring EC50 values. […] Similar results were obtained with other agonist compounds listed above.

[8] = amylin 300 mg/kg/day, s.c. 28-day osmotic pump, body composition by chemical analysis
[9] = DIO rats, amylin 300 mg/kg/day, s.c. 28-day osmotic pump, body composition by chemical analysis
[10] = food access prior Ad-lib, during Ad-lib
[11] = food access prior Ad-lib, during Restricted
[12] = food access prior Restricted, during Ad-lib
[13] = food access prior Restricted, during Restricted

amylin: Amylin synthesized by Amylin Pharmaceuticals, Inc. by solid-phase chemistry; species not stated (KCNTATCATQRLANFLVHSSNNFGAILSSTNVGSNTY; not fully specified (C-terminus, bridges); cysteine pairing not given here; UniProt P10997 34-70, looked up)
Body Weight ([1]; Week 1): 6%* | Caloric Intake ([1]; Week 1): 45%* | Body Weight ([1]; Week 2): 7%* | Caloric Intake ([1]; Week 2): 14%* | Body Weight ([1]; Week 3): 8%* | Caloric Intake ([1]; Week 3): 10%* | Body Weight ([1]; Week 4): 8%* | Caloric Intake ([1]; Week 4): 10%* | tolerance/resistance ([1]; administered by osmotic pump): did not induce tolerance/resistance | protein compared to the control group (vehicle only) ([1]; obesity-prone rats): increase | body weight gain ([2]; 30 μg/kg/day): reduction | Body Weight ([2]; 30 μg/kg/day amylin, Week 1): 5%* | Caloric Intake ([2]; 30 μg/kg/day amylin, Week 1): 32%* | Body Weight ([2]; 30 μg/kg/day amylin, Week 2): 7%* | Caloric Intake ([2]; 30 μg/kg/day amylin, Week 2): 17%* | Body Weight ([2]; 30 μg/kg/day amylin, Week 3): 7%* | Caloric Intake ([2]; 30 μg/kg/day amylin, Week 3): 10% | Body Weight ([2]; 30 μg/kg/day amylin, Week 4): 7%* | Caloric Intake ([2]; 30 μg/kg/day amylin, Week 4): 8% | Body Weight ([2]; 100 μg/kg/day amylin, Week 1): 10%* | Caloric Intake ([2]; 100 μg/kg/day amylin, Week 1): 45%* | Body Weight ([2]; 100 μg/kg/day amylin, Week 2): 10%* | Caloric Intake ([2]; 100 μg/kg/day amylin, Week 2): 19%* | Body Weight ([2]; 100 μg/kg/day amylin, Week 3): 9%* | Caloric Intake ([2]; 100 μg/kg/day amylin, Week 3): 4% | Body Weight ([2]; 100 μg/kg/day amylin, Week 4): 8%* | Caloric Intake ([2]; 100 μg/kg/day amylin, Week 4): 9% | Body Weight ([2]; 300 μg/kg/day amylin, Week 1): 7%* | Caloric Intake ([2]; 300 μg/kg/day amylin, Week 1): 41%* | Body Weight ([2]; 300 μg/kg/day amylin, Week 2): 8%* | Caloric Intake ([2]; 300 μg/kg/day amylin, Week 2): 15%* | Body Weight ([2]; 300 μg/kg/day amylin, Week 3): 10%* | Caloric Intake ([2]; 300 μg/kg/day amylin, Week 3): 19%* | Body Weight ([2]; 300 μg/kg/day amylin, Week 4): 12%* | Caloric Intake ([2]; 300 μg/kg/day amylin, Week 4): 19%* | effects on food intake and body weight across doses ([2]; 30, 100 and 300 μg/kg/day): dose-dependent | percent body fat relative to pair-fed [3]: lower | percent protein [3]: remained relatively constant | weight gain compared to vehicle rats [3]: significant reduction | reduction in body weight relative to vehicle controls ([3]; amylin 300 μg/kg/day, osmotic pump): 12% | Fat (%) ([3]; amylin 300 μg/kg/day, s.c. 28-day osmotic pump, body composition by chemical analysis): 7.2 ± 1.5 % | Weight (g) ([3]; amylin 300 μg/kg/day, s.c. 28-day osmotic pump, end of study): 392.25* g | Moisture (%) [3, 8]: 67.57 ± 0.7 % | Protein (%) [3, 8]: 20.67 ± 0.74% | percent body fat ([4]; DIO rats): significant decrease | percent protein ([4]; DIO rats): significant preservation or gain | weight gain compared to vehicle rats ([4]; DIO rats): significant reduction | Fat (%) [4, 9]: 24.3 ± 6.5 % | Moisture (%) [4, 9]: 56.68 ± 4.4 % | Protein (%) [4, 9]: 18.09 ± 1.68 % | reduction in body weight relative to vehicle controls ([4]; DIO rats, osmotic pump): 12% | Ash (%) ([4]; DIO rats, s.c. 28-day osmotic pump, body composition by chemical analysis): 1.65 ± 0.34% | Weight (g) ([4]; DIO rats, s.c. 28-day osmotic pump, end of study): 548.94* g | muscle glycogen content ([4]; tissue biochemistry, amyloglucosidase method): significantly reduced | food intake versus vehicle treated counterparts ([5]; FIGS. 13E-13H): ate less | Body Weight ([5]; all treatment conditions): significantly reduced | percent protein ([5]; except in ad-lib fed then food restricted group): increases | percent body fat ([5]; except in chronically restricted animals): significant decreases | % Change in fat [5, 10]: −10.1 ± 0.5% | % Change in protein [5, 10]: 0.8 ± 0.1% | Estimated Mean Weight change from treatment [5, 10]: -21.8 ± 1.4 g | % Change in fat [5, 11]: −9.9 ± 0.9% | % Change in protein [5, 11]: 0.7 ± 0.1% | Estimated Mean Weight change from treatment [5, 11]: -23.1 ± 2.3 g | % Change in fat [5, 12]: −11.5 ± 0.6% | % Change in protein [5, 12]: 1.1 ± 0.1% | Estimated Mean Weight change from treatment [5, 12]: -18.2 ± 2.5 g | % Change in fat [5, 13]: −11.1 ± 1.0% | % Change in protein [5, 13]: 1.0 ± 0.1% | Estimated Mean Weight change from treatment [5, 13]: -17.1 ± 2.0 g | slowing body weight gain [6]: significant effect | effects on body composition ([6]; rodent NMR): favorable effects

^2,37h-Amylin
EC50 [7]: 1.63 nM

— patent publication US7399744B2, “Methods for affecting body composition” (Amylin Pharmaceuticals, Inc., priority 2004, dated 2008)
